The record followed here is ChEMBL document CHEMBL1130235, “4-hydroxy-5,6-dihydropyrones. 2. Potent non-peptide inhibitors of HIV protease” (J Med Chem, 1997).

Assay [1] has as its target T1, Human immunodeficiency virus type 1 protease (Human immunodeficiency virus 1, UniProt Q72874). Briefly: Inhibitory activity against HIV protease at pH 6.2.
Assay [2] concerns the target T1, Human immunodeficiency virus type 1 protease. Briefly: Inhibitory activity against HIV protease at pH 4.7.
Assay [3] shares this target. The assay can be described thus: Inhibitory activity against HIV protease.

As usually defined, the IC50 is the concentration that gives 50% inhibition. Higher therefore signals weaker potency in that assay. `CC(C)(C)c1ccccc1SC1=C(O)OC(CCc2ccccc2)(c2ccccc2)CC1=O` (stereo not drawn): the IC50 in assay [1] came to 0.104 µM; in assay [2], 0.003 µM.
In assay [3], `O=C1CC(CCc2ccccc2)(c2ccccc2)OC(O)=C1Sc1ccccc1` (stereo not drawn) had an IC50 of 0.13 µM.
As for `CCCCC1(c2ccccc2)CC(=O)C(SCCc2ccccc2)=C(O)O1` (stereo not drawn), the IC50 in assay [3] came out at 0.4 µM.
The molecule `O=C1CC(c2ccccc2)(c2ccccc2)OC(O)=C1Sc1ccccc1` returned an IC50 in assay [3] of 0.11 µM. Against the preceding molecule, the IC50 is about 3.6-fold lower.
Same read-out and setting: the result for `Cc1ccccc1SC1=C(O)OC(c2ccccc2)(c2ccccc2)CC1=O` reads 0.388 µM; that for `O=C(O)CCCCC1(c2ccccc2)CC(=O)C(SCCc2ccccc2)=C(O)O1` (stereo not drawn), 0.005 µM.
The same measure, in the same setting: in the case of `O=C1CC(c2ccccc2)(c2ccccc2)OC(O)=C1Sc1ccccc1C1CCCCC1` it was 0.127 µM; in that of `Cc1ccccc1SC1=C(O)OC(CCc2ccccc2)(c2ccccc2)CC1=O` (stereo not drawn), 0.073 µM.
On to `CC(C)CCC1(c2ccccc2)CC(=O)C(SCc2ccccc2)=C(O)O1` (stereo not drawn), for which the IC50 in assay [3] turned out to be 0.098 µM.
With `O=C1CC(c2ccccc2)(c2ccccc2)OC(O)=C1SCCc1ccccc1`, the IC50 in assay [3] stood at 0.152 µM.
Turning to `CC(C)(C)c1ccccc1Sc1c(O)cc(-c2ccccc2)oc1=O`, the concentration for half-maximal inhibition (IC50) in assay [2] worked out at 0.017 µM.
In assay [3], `CCCC1(c2ccccc2)CC(=O)C(SCCc2ccccc2)=C(O)O1` (stereo not drawn) came in with an IC50 of 5.1 µM.
Turning to `O=C1CC(c2ccccc2)OC(O)=C1SCCc1ccccc1` (stereo not drawn), the IC50 in assay [3] is 2.1 µM.
Regarding `Cc1ccc(C(C)C)c(SC2=C(O)OC(c3ccccc3)(c3ccccc3)CC2=O)c1`, half-maximal inhibition in assay [3] (IC50) was put at 0.038 µM.
For the molecule `Cc1ccc(C(C)(C)C)c(Sc2c(O)cc(-c3ccccc3)oc2=O)c1`, the IC50 in assay [1] was determined as 0.282 µM; in assay [2] it was 0.028 µM.
Regarding `CC(C)c1ccc(C(C)C)c(SC2=C(O)OC(c3ccccc3)(c3ccccc3)CC2=O)c1`, the IC50 in assay [3] is 0.119 µM.
Regarding `O=C1CC(CC2CCCC2)(c2ccccc2)OC(O)=C1SCCc1ccccc1` (stereo not drawn), in assay [3], the IC50 stood at 0.51 µM.
Still for that read-out and setting: in the case of `O=C1CC(COc2ccccc2)(c2ccccc2)OC(O)=C1SCc1ccccc1` (stereo not drawn) it was 0.172 µM; in that of `CCCCCC1(c2ccccc2)CC(=O)C(SCCc2ccccc2)=C(O)O1` (stereo not drawn), 0.084 µM; in that of `O=C1CC(c2ccccc2)OC(O)=C1SCc1ccccc1` (stereo not drawn), 8.9 µM.
Consider `CCC(C)c1ccccc1SC1=C(O)OC(CCc2ccccc2)(c2ccccc2)CC1=O` (stereo not drawn), for which the IC50 in assay [3] is 0.01 µM.
Still for that read-out and setting: the result for `O=C1CC2(CCCc3ccccc32)OC(O)=C1SCc1ccccc1` (stereo not drawn) reads 2.3 µM; that for `O=C1CC2(CCc3ccccc32)OC(O)=C1SCc1ccccc1` (stereo not drawn), 11.8 µM.
For the molecule `Cc1ccc(C(C)C)c(SC2=C(O)OC(CCc3ccccc3)(c3ccccc3)CC2=O)c1` (stereo not drawn), the IC50 is 0.079 µM in assay [1] and 0.007 µM in assay [2].
In assay [3], `CCCC1(c2ccccc2)CC(=O)C(SCc2ccccc2)=C(O)O1` (stereo not drawn) had an IC50 of 0.29 µM.
The same measure, in the same setting: the result for `CC(C)CC1(c2ccccc2)CC(=O)C(SCc2ccccc2)=C(O)O1` (stereo not drawn) reads 0.44 µM.
Turning to `Cc1ccc(C(C)(C)C)c(SC2=C(O)OC(CCc3ccccc3)(c3ccccc3)CC2=O)c1` (stereo not drawn), the IC50 in assay [1] is 0.035 µM; in assay [2], 0.01 µM.
Regarding `CC(C)c1ccc(C(C)(C)C)c(SC2=C(O)OC(CCc3ccccc3)(c3ccccc3)CC2=O)c1` (stereo not drawn), in assay [3], the midpoint of inhibition, the IC50, lay at 0.047 µM.
Molecule `NC(=O)CCCCC1(c2ccccc2)CC(=O)C(SCCc2ccccc2)=C(O)O1` (stereo not drawn) registered an IC50 in assay [3] of 0.338 µM.
Turning to `CC(C)c1ccccc1SC1=C(O)OC(CCc2ccccc2)(c2ccccc2)CC1=O` (stereo not drawn), the figures for the IC50 in assay [1] and in assay [2] were 0.097 µM and 0.014 µM, respectively.
In assay [3], `NC(=O)CCCC1(c2ccccc2)CC(=O)C(SCCc2ccccc2)=C(O)O1` (stereo not drawn) had an IC50 of 1.3 µM.
Turning to `CC(C)c1ccc(C(C)C)c(SC2=C(O)OC(CCc3ccccc3)(c3ccccc3)CC2=O)c1` (stereo not drawn), the IC50 in assay [3] was 0.014 µM.
As for `CCCCC1(c2ccccc2)CC(=O)C(SCc2ccccc2)=C(O)O1` (stereo not drawn), in assay [3], the IC50 is 0.27 µM.
Molecule `CCC(C)c1ccccc1SC1=C(O)OC(c2ccccc2)(c2ccccc2)CC1=O` (stereo not drawn) returned an IC50 in assay [3] of 0.017 µM.
In the case of `O=C(O)CCCC1(c2ccccc2)CC(=O)C(SCCc2ccccc2)=C(O)O1` (stereo not drawn), the midpoint of inhibition in assay [3], the IC50, lay at 0.27 µM. Against the preceding molecule, the IC50 is about 16-fold higher.
On to `CC(C)CC1(c2ccccc2)CC(=O)C(SCCc2ccccc2)=C(O)O1` (stereo not drawn), for which 1.2 µM corresponded to half-maximal inhibition in assay [3] (IC50).
In assay [3], `O=C1CC(CCc2ccccc2)(c2ccccc2)OC(O)=C1SCc1ccccc1` (stereo not drawn) returned an IC50 of 0.06 µM. This IC50 lies about 20-fold lower than the previous one.
For `CCCCCCC1(c2ccccc2)CC(=O)C(SCc2ccccc2)=C(O)O1` (stereo not drawn), 0.18 µM corresponded to half-maximal inhibition in assay [3] (IC50).
`O=C1CC(c2ccccc2)(c2ccccc2)OC(O)=C1Sc1ccccc1C1CCCC1`: the IC50 in assay [3] worked out at 0.014 µM.
On the same count and under the same terms, the result for `O=C(O)CCC1(c2ccccc2)CC(=O)C(SCCc2ccccc2)=C(O)O1` (stereo not drawn) reads 1.2 µM; that for `O=C1CC(CCCCO)(c2ccccc2)OC(O)=C1SCc1ccccc1` (stereo not drawn), 1.26 µM.
In assay [3], `O=c1cc(-c2ccccc2)oc(O)c1Sc1ccccc1` gave an IC50 of 3.1 µM. Against the preceding molecule, the IC50 is about 2.5-fold higher.
`CCCCCC1(c2ccccc2)CC(=O)C(SCc2ccccc2)=C(O)O1` (stereo in doubt; 15b): in assay [3], half-maximal inhibition (IC50) was put at 0.327 µM.
On the same count and under the same terms, the result for `CC(C)(C)c1ccccc1SC1=C(O)OC(c2ccccc2)(c2ccccc2)CC1=O` reads 0.049 µM.
Same read-out and setting: the result for `O=C1CC(CCc2ccccc2)(c2ccccc2)OC(O)=C1Sc1ccccc1C1CCCCC1` (stereo not drawn) reads 0.032 µM.
Regarding `O=C1CC2(CCCc3ccccc32)OC(O)=C1SCCc1ccccc1` (stereo not drawn), the IC50 in assay [3] amounted to 1.3 µM.
Consider `CC(C)c1ccccc1SC1=C(O)OC(c2ccccc2)(c2ccccc2)CC1=O`, for which, in assay [3], 0.023 µM corresponded to half-maximal inhibition (IC50).
Molecule `Cc1ccc(C(C)C)c(SC2=C(O)O[C@@](CCc3ccccc3)(c3ccccc3)CC2=O)c1` had an IC50 in assay [3] of 0.13 µM.
On to `CC(C)CCCC1(c2ccccc2)CC(=O)C(SCCc2ccccc2)=C(O)O1` (stereo not drawn), for which, in assay [3], half-maximal inhibition (IC50) required 0.155 µM.
The molecule `CCCCCCC1(c2ccccc2)CC(=O)C(SCCc2ccccc2)=C(O)O1` (stereo not drawn) registered an IC50 in assay [3] of 0.112 µM. This IC50 and that of the molecule before are within 1.5-fold of each other.
Same read-out and setting: the result for `CCCCCC1(c2ccccc2)CC(=O)C(SCc2ccccc2)=C(O)O1` (stereo in doubt; 4b) reads 0.124 µM.
The molecule `O=C1CC(c2ccccc2)(c2ccncc2)OC(O)=C1SCCc1ccccc1` (stereo not drawn) registered an IC50 in assay [3] of 0.79 µM.
`Cc1ccc(C(C)C)c(Sc2c(O)cc(-c3ccccc3)oc2=O)c1` came in with an IC50 in assay [2] of 0.017 µM.
For the molecule `Cc1ccc(C(C)C)c(SC2=C(O)O[C@](CCc3ccccc3)(c3ccccc3)CC2=O)c1`, inhibition in assay [3] was half-maximal at 0.006 µM (IC50). In other words, the single-digit nanomolar range.
As to `CC(C)CCC1(c2ccccc2)CC(=O)C(SCCc2ccccc2)=C(O)O1` (stereo not drawn), the 50% inhibitory concentration (IC50) in assay [3] was 0.096 µM. Against the preceding molecule, the IC50 is about 16-fold higher.
In assay [3], `O=C1CC(CCc2ccccc2)(c2ccccc2)OC(O)=C1SCCc1ccccc1` (stereo not drawn) displayed an IC50 of 0.051 µM.
For the molecule `CN(CC1(c2ccccc2)CC(=O)C(SCCc2ccccc2)=C(O)O1)c1ccccc1` (stereo not drawn), in assay [3], the IC50 worked out at 2.28 µM.
With `CC(C)CCCC1(c2ccccc2)CC(=O)C(SCc2ccccc2)=C(O)O1` (stereo not drawn), half-maximal inhibition in assay [3] (IC50) was put at 0.183 µM.
On to `CC(C)CCC1(c2ccccc2)CC(=O)C(Sc2ccccc2)=C(O)O1` (stereo not drawn), for which the IC50 in assay [3] is 1.4 µM. Against the preceding molecule, the IC50 is about 7.7-fold higher.
In turn, `O=C1CC(c2ccccc2)(c2ccccc2)OC(O)=C1SCc1ccccc1` came in with an IC50 in assay [3] of 0.262 µM.
As to `Cc1ccc(C(C)(C)C)c(SC2=C(O)OC(c3ccccc3)(c3ccccc3)CC2=O)c1`, in assay [3], the IC50 was 0.012 µM.
The same measure, in the same setting: in the case of `O=C1CC(CC2CCCCC2)(c2ccccc2)OC(O)=C1SCc1ccccc1` (stereo not drawn) it was 0.137 µM; in that of `O=C1CC(CC2CCCC2)(c2ccccc2)OC(O)=C1SCc1ccccc1` (stereo not drawn), 0.088 µM.
